Patent US8198273B2, “Compounds and methods for kinase modulation, and indications therefor” (Plexxikon Inc., priority 2009, dated 2012)

Columns and labels:
[1] = system: SW620 colon adenocarcinoma cells (wild-type B-RAF); assay: SW620 cell growth inhibition (ATPlite); type: cell-based; conditions: Homo sapiens, SW-620, 72 h; SW620, 3 days incubation
Procedure, shortened: (§1)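 ATPlite luminescence, taken as a cell-number measure, gave IC50 values after a 3-day 37° C, 5% CO2 incubation. Compounds were tested as 8-point threefold titrations, highest final concentration 10 μM, added to cells seeded the day before.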

[2] = system: A375 melanoma cells (B-Raf V600E); assay: A375 cell growth inhibition (ATPlite); type: cell-based; conditions: Homo sapiens, A-375, 72 h; A375, 3 days incubation
Procedure, shortened: as §1

[3] = system: SKMEL2 melanoma cells (Ras mutation); assay: SKMEL2 cell growth inhibition (ATPlite); type: cell-based; conditions: Homo sapiens, SK-MEL-2, 72 h; SKMEL2, 3 days incubation
Procedure, shortened: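 SKMEL2 cells seeded at 2,000 per well overnight, then exposed to an 8-point 1:3 compound titration (top 10 μM final) for 3 days at 37 °C. ATPlite luminescence used as a measure of cell number to derive IC50.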

CYP2C9 = CYP2C9 (Homo sapiens, UniProt P11712); assay: CYP2C9 inhibition (fluorescent substrate); type: in vitro ADME; conditions: CYP2C9, MFC substrate; read-out: Cyp IC50 2C9
CYP2C9, sequence (P11712 whole entry): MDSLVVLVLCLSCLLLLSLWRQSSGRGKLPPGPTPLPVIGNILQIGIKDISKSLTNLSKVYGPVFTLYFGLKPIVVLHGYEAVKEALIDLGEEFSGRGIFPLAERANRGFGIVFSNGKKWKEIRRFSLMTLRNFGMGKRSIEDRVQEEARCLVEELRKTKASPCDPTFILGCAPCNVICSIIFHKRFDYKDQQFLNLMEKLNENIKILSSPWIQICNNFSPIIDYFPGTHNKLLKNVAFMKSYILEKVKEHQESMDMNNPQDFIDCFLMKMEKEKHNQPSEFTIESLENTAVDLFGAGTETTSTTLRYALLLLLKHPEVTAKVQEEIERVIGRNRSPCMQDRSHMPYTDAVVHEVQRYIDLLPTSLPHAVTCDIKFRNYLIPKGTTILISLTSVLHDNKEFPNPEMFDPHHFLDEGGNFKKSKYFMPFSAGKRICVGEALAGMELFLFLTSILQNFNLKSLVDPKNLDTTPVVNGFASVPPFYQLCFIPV
Procedure, shortened: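 First, 100 mM DMSO stocks are diluted into acetonitrile, then twofold through co-factor mix for 10 points. Next, mixtures are preincubated 10 min at 37 °C.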

CYP3A4(BFC) = CYP3A4(BFC) (Homo sapiens, UniProt P08684); assay: CYP3A4(BFC) inhibition (fluorescent substrate); type: in vitro ADME; conditions: read-out: Cyp IC50 3A4(BFC)
CYP3A4(BFC), sequence (P08684 whole entry): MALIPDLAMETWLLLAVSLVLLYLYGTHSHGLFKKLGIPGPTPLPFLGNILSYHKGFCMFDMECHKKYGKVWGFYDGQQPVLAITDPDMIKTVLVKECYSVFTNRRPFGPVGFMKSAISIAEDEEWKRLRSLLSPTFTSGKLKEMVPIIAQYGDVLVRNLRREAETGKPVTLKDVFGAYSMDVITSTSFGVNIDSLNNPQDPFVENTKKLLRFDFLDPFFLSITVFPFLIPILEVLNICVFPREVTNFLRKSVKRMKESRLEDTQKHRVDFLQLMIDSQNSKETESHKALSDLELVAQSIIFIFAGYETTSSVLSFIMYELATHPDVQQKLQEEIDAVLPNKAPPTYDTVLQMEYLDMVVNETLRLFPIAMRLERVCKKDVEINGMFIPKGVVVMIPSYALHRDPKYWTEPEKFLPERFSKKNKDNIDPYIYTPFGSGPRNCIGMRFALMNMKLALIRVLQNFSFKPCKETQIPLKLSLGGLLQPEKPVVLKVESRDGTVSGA
Procedure, shortened: (§2)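 Compound, from a 100 mM DMSO stock and diluted 1:1 over 10 points in co-factor mix, was incubated at 37° C with enzyme and a known substrate. Decrease in fluorescent product against concentration gave the IC50.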

CYP3A4(BQ) = CYP3A4(BQ) (Homo sapiens, UniProt P08684); assay: CYP3A4(BQ) inhibition (fluorescent substrate); type: in vitro ADME; conditions: read-out: Cyp IC50 3A4(BQ)
CYP3A4(BQ), sequence (P08684 whole entry): as above
Procedure, shortened: as §2

Row | Structure (SMILES) | IC50 [1] | IC50 [2] | IC50 [3] | IC50 (CYP2C9) | IC50 (CYP3A4(BFC)) | IC50 (CYP3A4(BQ))
1 | O=C(c1c(F)ccc(NS(=O)(=O)c2ccccc2F)c1F)c1c[nH]c2nccc(Cl)c12 [P-2017, N-[3-(4-Chloro-1H-pyrrolo[2,3-b]pyridine-3-carbonyl)-2,4-difluoro-phenyl]-2-fluoro-benzenesulfonamide] | > 10 µM | < 1 µM | > 10 µM | > 10 µM | > 10 µM | > 10 µM
2 | COc1cnc2[nH]cc(C(=O)c3c(F)ccc(NS(=O)(=O)c4ccccc4F)c3F)c2c1 [P-2009, N-[2,4-Difluoro-3-(5-methoxy-1H-pyrrolo[2,3-b]pyridine-3-carbonyl)-phenyl]-2-fluoro-benzenesulfonamide] | > 10 µM | < 1 µM | > 10 µM | > 10 µM | > 10 µM | > 10 µM
3 | CCCS(=O)(=O)Nc1ccc(F)c(C(=O)c2c[nH]c3ncc(-c4ccc(S(=O)(=O)CC)cc4)cc23)c1F [P-2218, Propane-1-sulfonic acid {3-[5-(4-ethanesulfonyl-phenyl)-1H-pyrrolo[2,3-b]pyridine-3-carbonyl]-2,4-difluoro-phenyl}-amide] | < 20 µM | < 0.1 µM | > 10 µM | > 10 µM | > 10 µM | > 10 µM
4 | COc1ccnc2[nH]cc(C(=O)c3c(F)ccc(NS(=O)(=O)c4c(F)cccc4F)c3F)c12 [P-2031, N-[2,4-Difluoro-3-(4-methoxy-1H-pyrrolo[2,3-b]pyridine-3-carbonyl)-phenyl]-2,6-difluoro-benzenesulfonamide] | > 10 µM | < 5 µM | > 10 µM | > 10 µM | > 10 µM | > 10 µM
5 | N#Cc1ccnc2[nH]cc(C(=O)c3c(F)ccc(NS(=O)(=O)c4ccccc4F)c3F)c12 [P-2020, N-[3-(4-Cyano-1H-pyrrolo[2,3-b]pyridine-3-carbonyl)-2,4-difluoro-phenyl]-2-fluoro-benzenesulfonamide] | > 10 µM | < 5 µM | > 10 µM | > 10 µM | > 10 µM | > 10 µM
6 | COc1cnc2[nH]cc(C(=O)c3c(F)ccc(NS(=O)(=O)c4cc(F)ccc4F)c3F)c2c1 [P-2010, N-[2,4-Difluoro-3-(5-methoxy-1H-pyrrolo[2,3-b]pyridine-3-carbonyl)-phenyl]-2,5-difluoro-benzenesulfonamide] | > 10 µM | < 1 µM | > 10 µM | > 10 µM | > 10 µM | > 10 µM
7 | CCCS(=O)(=O)Nc1ccc(F)c(C(=O)c2c[nH]c3ncc(-c4ccc(N)nc4)cc23)c1F [P-2214, Propane-1-sulfonic acid {3-[5-(6-amino-pyridin-3-yl)-1H-pyrrolo[2,3-b]pyridine-3-carbonyl]-2,4-difluoro-phenyl}-amide] | < 20 µM | < 1 µM | > 10 µM | > 10 µM | > 10 µM | > 10 µM
8 | CCCS(=O)(=O)Nc1ccc(F)c(C(=O)c2c[nH]c3ncc(-c4cncnc4)cc23)c1F [P-2162, Propane-1-sulfonic acid [2,4-difluoro-3-(5-pyrimidin-5-yl-1H-pyrrolo[2,3-b]pyridine-3-carbonyl)-phenyl]-amide] | > 10 µM | < 1 µM | < 10 µM | 5 to 10 µM | 5 to 10 µM | < 5 µM
9 | O=C(c1c(F)ccc(NS(=O)(=O)c2cc(F)ccc2F)c1F)c1c[nH]c2ncc(Cl)cc12 [P-2002, N-[3-(5-Chloro-1H-pyrrolo[2,3-b]pyridine-3-carbonyl)-2,4-difluoro-phenyl]-2,5-difluoro-benzenesulfonamide] | < 20 µM | < 1 µM | > 10 µM | 5 to 10 µM | > 10 µM | > 10 µM
10 | CCCS(=O)(=O)Nc1ccc(F)c(C(=O)c2c[nH]c3ncc(-c4ccc(F)nc4)cc23)c1F [P-2155, Propane-1-sulfonic acid {2,4-difluoro-3-[5-(6-fluoro-pyridin-3-yl)-1H-pyrrolo[2,3-b]pyridine-3-carbonyl]-phenyl}-amide] | > 10 µM | < 1 µM | < 20 µM | > 10 µM | > 10 µM | > 10 µM
11 | Cc1cnc2[nH]cc(C(=O)c3c(F)ccc(NS(=O)(=O)c4cccc(F)c4)c3F)c2c1 [P-2016, N-[2,4-Difluoro-3-(5-methyl-1H-pyrrolo[2,3-b]pyridine-3-carbonyl)-phenyl]-3-fluoro-benzenesulfonamide] | > 10 µM | < 1 µM | > 10 µM | < 5 µM | > 10 µM | 5 to 10 µM
12 | N#Cc1ccnc2[nH]cc(C(=O)c3c(F)ccc(NS(=O)(=O)c4c(F)cccc4F)c3F)c12 [P-2037, N-[3-(4-Cyano-1H-pyrrolo[2,3-b]pyridine-3-carbonyl)-2,4-difluoro-phenyl]-2,6-difluoro-benzenesulfonamide] | > 10 µM | < 5 µM | > 10 µM | > 10 µM | > 10 µM | > 10 µM
13 | O=C(c1c(F)ccc(NS(=O)(=O)c2cc(F)ccc2F)c1F)c1c[nH]c2nccc(Cl)c12 [P-2018, N-[3-(4-Chloro-1H-pyrrolo[2,3-b]pyridine-3-carbonyl)-2,4-difluoro-phenyl]-2,5-difluoro-benzenesulfonamide] | > 10 µM | < 1 µM | > 10 µM | > 10 µM | 5 to 10 µM | > 10 µM
14 | N#Cc1cnc2[nH]cc(C(=O)c3c(F)ccc(NS(=O)(=O)c4cccnc4)c3F)c2c1 [P-2072, Pyridine-3-sulfonic acid [3-(5-cyano-1H-pyrrolo[2,3-b]pyridine-3-carbonyl)-2,4-difluoro-phenyl]-amide] | > 10 µM | < 5 µM | > 10 µM | > 10 µM | 5 to 10 µM | < 5 µM
15 | CCCS(=O)(=O)Nc1cccc(C(=O)c2c[nH]c3ncc(-c4cnc(OC)nc4)cc23)c1F [P-2407, Propane-1-sulfonic acid {2-fluoro-3-[5-(2-methoxy-pyrimidin-5-yl)-1H-pyrrolo[2,3-b]pyridine-3-carbonyl]-phenyl}-amide] | > 10 µM | < 1 µM | < 20 µM | > 10 µM | > 10 µM | > 10 µM
16 | N#Cc1cnc2[nH]cc(C(=O)c3cccc(NS(=O)(=O)c4ccccc4F)c3F)c2c1 [P-2051, N-[3-(5-Cyano-1H-pyrrolo[2,3-b]pyridine-3-carbonyl)-2-fluoro-phenyl]-2-fluoro-benzenesulfonamide] | > 10 µM | < 1 µM | > 10 µM | 5 to 10 µM | > 10 µM | > 10 µM
17 | O=C(c1c(F)ccc(NS(=O)(=O)c2c(F)cccc2F)c1F)c1c[nH]c2nccc(Cl)c12 [P-2033, N-[3-(4-Chloro-1H-pyrrolo[2,3-b]pyridine-3-carbonyl)-2,4-difluoro-phenyl]-2,6-difluoro-benzenesulfonamide] | > 10 µM | < 5 µM | > 10 µM | > 10 µM | > 10 µM | > 10 µM
18 | CCCS(=O)(=O)Nc1ccc(F)c(C(=O)c2c[nH]c3ncc(-c4ccc(S(C)(=O)=O)cc4)cc23)c1F [P-2183, Propane-1-sulfonic acid {2,4-difluoro-3-[5-(4-methanesulfonyl-phenyl)-1H-pyrrolo[2,3-b]pyridine-3-carbonyl]-phenyl}-amide] | < 20 µM | < 0.1 µM | > 10 µM | 5 to 10 µM | > 10 µM | > 10 µM
19 | N#Cc1cnc2[nH]cc(C(=O)c3c(F)ccc(NS(=O)(=O)c4ccccc4)c3F)c2c1 [P-2046, N-[3-(5-Cyano-1H-pyrrolo[2,3-b]pyridine-3-carbonyl)-2,4-difluoro-phenyl]-benzenesulfonamide] | < 5 µM | < 1 µM | > 10 µM | < 5 µM | > 10 µM | > 10 µM
20 | N#Cc1cnc2[nH]cc(C(=O)c3c(F)ccc(NS(=O)(=O)c4c(F)cccc4F)c3F)c2c1 [P-2029, N-[3-(5-Cyano-1H-pyrrolo[2,3-b]pyridine-3-carbonyl)-2,4-difluoro-phenyl]-2,6-difluoro-benzenesulfonamide] | > 10 µM | < 5 µM | > 10 µM | > 10 µM | > 10 µM | > 10 µM
21 | CCCS(=O)(=O)Nc1ccc(F)c(C(=O)c2c[nH]c3ncc(-c4cnc(N(C)C)nc4)cc23)c1F [P-2196, Propane-1-sulfonic acid {3-[5-(2-dimethylamino-pyrimidin-5-yl)-1H-pyrrolo[2,3-b]pyridine-3-carbonyl]-2,4-difluoro-phenyl}-amide] | > 10 µM | < 1 µM | > 10 µM | 5 to 10 µM | < 5 µM | > 10 µM
